The source of these data is US20240382484A1, “COMPOSITION FOR TREATING, PREVENTING, OR AMELIORATING MELANOMA AND METHOD THEREOF” (Thomas Jefferson University, priority 2021, published 2024).

Assay [1] deals with WM1361A and WM1366 cells. Kind of assay: Reverse-phase protein array and immunoblot analysis. The class given is cell-based, human. As to conditions: immunoblot, 24 hours. The protocol:
FIG. 15A: Reverse-phase protein array analysis of WM1361A and WM1366 cells. The cells were treated with vehicle (DMSO), either pharmacologic inhibition or genetic depletion of PDPK1 only, MEK inhibitor only and the combinations as indicated. All samples were harvested in three biological independent experiments. Proteins levels were normalized to the mean. Antibodies were limited to those that were differentially expressed (BHFDR <0.05) in at least three of the four comparisons between combination and control samples. FIG. 15B: WM1361A and WM1366 cells were treated with PD0325901 and GSK2334470 as indicated for 24 hours. Cell lysates were applied to immunoblot with indicated antibodies. FIG. 15C: WM1361A and WM1366 parental clones (iCas9) and PDPK1-depleted clones by two individual sgRNAs (KO1 and K02) treated with trametinib as indicated for 24 hours. Cell lysates were applied to immunoblot with indicated antibodies.
WM1361A and WM1366 cells were treated with vehicle control, PDPK1i (GSK2334470), MEKi (trametinib) or combined PDPK1i and MEKi for 48 hours. WM1361A and WM1366 cells were also transfected with ON-target control siRNAs or PDPK1 siRNAs, and then treated with or without trametinib for further 48 hours. Cells were harvested, lysed and analyzed as described in Tibes et al. (Mol Cancer Ther 5, 2512-2521, 2006). […]
On the technique in general: A western blot detects proteins with antibodies after separation by electrophoresis.

Assay [2] deals with human NRAS mutant melanoma cell lines. Description: 72 hours drug combination, cell density by IncuCyte, synergy by Combenefit with Loewe method. The class given is cell-based. To be noted: WM1361A, WM1366, SK-MEL-30 and SK-MEL-173, 72 hours.
Experimental: FIG. 2A: NRAS mutant melanoma cell line WM1361A, WM1366, SK-MEL-30, SK-MEL-173, 1007 and 1014 were treated for 72 hours as indicated with GSK2334470 and trametinib and analyzed for cell density by IncuCyte. Synergy graphs were generated utilizing Combenefit Software with Loewe method. Data are represented as the mean from three biological independent experiments. FIG. 2B: WM1361A, WM1366, SK-MEL-30 or SK-MEL-173 cells were treated with GSK2334470 (PDPK1i) and trametinib (tram) alone or in combination (comb) at the indicated concentrations for 7 days. Cell growth was monitored by IncuCyte every 2 hours. Media were replaced twice with drugs during culture. Data are represented as the mean±SEM of three biological independent experiments. p values were calculated with an unpaired two-tailed t test. n.s., not significant.
FIG. 10A-10B: Cas9 expressed clone WM1361A-iCas9 #1 (FIG. 10A), and WM1366-iCas9 #11 (FIG. 10B) cells were treated for 72 hours as indicated with GSK2334470 and trametinib and analyzed for cell density by IncuCyte. Synergy graphs were generated utilizing Combenefit Software with Loewe method. Data are represented as the mean from three biological independent experiments.
FIG. 11A: WM1361A, WM1366, SK-MEL-30 and SK-MEL-173 cells were treated for 72 hours as indicated with GSK2334470 and PD0325901 and analyzed for cell density by IncuCyte. Synergy graphs were generated utilizing Combenefit Software with Loewe method. Data are represented as the mean from three biological independent experiments. FIG. 11B: WM1361A, WM1366, SK-MEL-30 or SK-MEL-173 cells were treated with GSK2334470 (PDPK1i) and PD0325901 (PD901) alone or in combination (Comb) at the indicated concentrations for 7 days. Cell growth was monitored by IncuCyte every 2 hours. Data are represented as the mean±SEM of three biological independent experiments. p values were calculated with an unpaired two-tailed t test. n.s., not significant.
FIG. 16A: WM1361A and WM1366 cells were treated for 72 hours with indicated inhibitors and analyzed for cell density by IncuCyte. Synergy graphs were generated utilizing Combenefit Software with Loewe method. Data are represented as the mean from three biological independent experiments.
To further analyze synergistic effects, the growth response of a panel of several NRAS mutant cells to titrated PDPK1i (GSK2334470) and MEKi (trametinib) combinations was assessed.
Human WM1361A and WM1366 melanoma cell lines were cultured in MCDB153 (Sigma) with 2% FBS, 20% Leibowitz L-15 medium, and 5 μg/mL insulin (WM medium). Human SK-MEL-30 and SK-MEL-173 melanoma cell lines were cultured in RPMI-1640 with 10% FBS. […] All cells were cultured at 37° C. in a humidified atmosphere containing 5% CO2. […] Cell lines were STR analyzed, confirmed for NRAS/Nras mutation, and tested to be mycoplasma-free during experiments. For cell proliferation and drug response, cells were monitored by IncuCyte® (Essen Bioscience, Ann Arbor, MI) every 2 hours.
The test system of assay [3] is 1014 cells. Kind of assay: 1014 cell growth for 7 days monitored by IncuCyte. The class given is cell-based, mouse. As to conditions: in vitro.

Turning to `O=C(NOC[C@H](O)CO)c1ccc(F)c(F)c1Nc1ccc(I)cc1F` [PD0325901, (R)—N-(2,3-dihydroxypropoxy)-3,4-difluoro-2-((2-fluoro-4-iodophenyl)amino)benzamide], the “p-S6, second MEKi with PDPK1i or sgRNA PDPK1 depletion” value in assay [1] is recorded as “enhanced reduction”. Besides, the “synergistic inhibition of PDPK1i (GSK2334470) with PD0325901” value in assay [2] is reported as “broad synergistic effects”. Consider `CC(=O)Nc1cccc(-n2c(=O)n(C3CC3)c(=O)c3c(Nc4ccc(I)cc4F)n(C)c(=O)c(C)c32)c1` [trametinib, N-(3-(3-cyclopropyl-5-((2-fluoro-4-iodophenyl)amino)-6,8-dimethyl-2,4,7-trioxo-3,4,6,7-tetrahydropyrido[4,3-d]pyrimidin-1(2H)-yl)phenyl)acetamide], for which the 1014 cell proliferation entry in assay [3] is listed as “suppressed”.
